Laboratory results taken from patent US20220054494A1, “METHODS FOR TREATING BLADDER AND URETHRA DYSFUNCTION AND DISEASE” (University of Pittsburgh - Of the Commonwealth System of …, priority 2019, published 2022).
Entries after “also recorded” stand apart in the source; their conditions may differ.

Tests used:
Type in all cases: in vivo, rat
AVP receptor V2 = assay: Western immunoblotting, kidney V2 vasopressin receptor; settings: aged Fisher 344 rats; 8-AG 5 mg kg/day via drinking water, 1 month
Method: Western immunoblotting and transmission electron microscopy: Following these testing paradigms, rats were deeply anesthetized, bladders were removed, and one half of each bladder (using the smooth muscle layer) was homogenized using Lysing Matrix D in a FASTPREP-24™ instrument (MP BIOMEDICALS™, Solon, Ohio) in HBSS (5 mM KCl, 0.3 mM KH2PO4, 138 mM NaCl, 4 mM NaHO3, 0.3 mM Na2HCO3, 0.3 mM Na2HPO4, 5.6 mM glucose and 10 mM Hepes, pH 7.4) containing complete protease inhibitor cocktail (1 tablet/10 ml, ROCHE™, Indianapolis, Ind.) and phosphatase inhibitor cocktail (SIGMA®, 1:100). Whole rat kidney was also homogenized using the same procedure. After centrifugation (13000 rpm; 15 min at 4° C.), the membrane protein fraction was prepared by suspending the membrane pellets in lysis buffer containing 0.3 M NaCl, 50 mM Tris-HCl (pH 7.6), 0.5% Triton X-100, and the same concentration of protease inhibitors as above. […] The protein concentrations of the combined supernatants were determined using the PIERCE™ BCA protein assay (THERMO SCIENTIFIC™, Rockford, Ill.). […] As a loading control, total protein per sample was determined using BIO-RAD™ Stain Free SDS-PAGE gel technology. UV-activated protein fluorescence was imaged on a CHEMIDOC™ MP (BIO-RAD™). […] The volume (intensity) of each protein species was determined and normalized to total protein using Image Lab software (BIO-RAD™).

CYP-treated rats [1] = assay: Images of intact bladders in CYP cystitis model (inflammation and bleeding); settings: CYP (75 mg/kg i.p.) female Sprague Dawley rats; oral 8-AG 5 mg/kg/day starting one week prior to CYP
Method: (§1) Animals: Female Sprague Dawley rats were employed in this example (Charles River; Wilmington, Mass.). Three groups of animals were included. Group 1 received an i.p. injection of saline and was used as a control; groups 2 and 3 received an i.p. injection of cyclophosphamide (CYP, SIGMA-ALDRICH®, St Louis, Mo., day 0, 3, 6, sacrifice day 8, 75 mg/kg, i.p.) with group 3 treated with oral 8-AG (5 mg/kg/day; starting one week prior to CYP). CYP induced bladder inflammation and is a well-established pre-clinical model for BPS/IC.

CYP-treated rats [2] = assay: Abdominal mechanical pain threshold (Von Frey) in CYP cystitis model; settings: CYP (75 mg/kg i.p.) female Sprague Dawley rats; oral 8-AG 5 mg/kg for 1 week prior to CYP
Method: as §1
Determination of mechanical pain threshold: Lower abdominal pain was evaluated using a mechanical hyperalgesia and allodynia test (Larid et al., Pain, 92:335-342, 2001; Minnet et al., PLoS One, 9:e104458, 2014). Briefly, animals were placed in individual chambers with a wire mesh floor and allowed to acclimate. This Von Frey test was performed in the lower abdomen and consists of delivering a constant pre-determined force with one of a series of Von Frey monofilaments (from 0.08 to 19.6 mN; Stoelting Co., Wood Dale, Ill., USA). Filaments were applied perpendicularly with enough strength to cause the monofilament to slightly bend. Each monofilament was tested five times, 5 s interval between each application. […]

## Nc1nc2[nH]c(N)nc2c(=O)[nH]1 [8-AG, 8-Aminoguanine]
AVP receptor V2
  V2 vasopressin receptor in kidney: restored to a younger state; also recorded: restored to levels similar to the younger state
CYP-treated rats [1]
  bladder inflammation and bleeding (images of intact bladders): nearly abolished
CYP-treated rats [2]
  abdominal mechanical pain threshold: returned to near control levels
